The source of these data is patent USRE47689E1, “Compounds for treating spinal muscular atrophy” (PTC Therapeutics, Inc., priority 2011, dated 2019).

Structures are written as SMILES. Like-named read-outs stand apart in the source and are kept apart here.

Data set [1] has as its system SMN2 minigene (full length SMN2 minigene mRNA containing SMN2 exon 7). Nature of the data set: SMN2 minigene mRNA splicing RT-qPCR assay in cultured cells. It counts as cell-based, human. The note with it: Homo sapiens, HEK293-H, read-out: EC1.5x for production of full length SMN2 mRNA. The method in brief:
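HEK293H cells stably carrying the SMN2-A minigene treated 24 h at 37° C with compound (DMSO, 200× stock), then lysed. Multiplex RT-qPCR (SMN primers 0.4 μM final; 40 cycles) measures full-length exon 7-containing minigene mRNA, normalized to GAPDH and to vehicle; EC1.5x derived and binned by stars.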
On the technique in general: Real-time PCR tracks product formation cycle by cycle.

The next data set deals with Smn protein. As to the kind of experiment: Smn protein assay in cultured cells (SMN HTRF). It counts as cell-based, human. The note with it: for EC1.5x (concentration giving 1.5-fold Smn protein increase): read-out: EC1.5x for Smn protein expression. The method, boiled down: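 Lysates in RIPA with protease inhibitors are incubated overnight at room temperature with HTRF anti-SMN antibodies. EC1.5x is derived from fold increase in ΔF over vehicle.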
On the technique in general: Time-resolved FRET reads energy transfer from a long-lived donor to a nearby acceptor.

Where [2] appears, read: HEK293H cells stably transfected with SMN2-A minigene, 24 hours, 7-point concentration curve, 1.5-fold relative to vehicle-treated cells.
[3] abbreviates: SMA Type 1 patient fibroblast cells (GM03813), 48 hours, 7-point concentration curve, SMN HTRF, concentration producing 1.5 times Smn protein vs DMSO vehicle control.
[4] abbreviates: SMA patient fibroblast cells, 48 hours, 7-point concentration data, fold increase relative to vehicle control (SMN HTRF).

As for `Cc1cn2cc(-c3cc4ccc(OCCN5CCC(O)CC5)cc4oc3=O)nc2c(C)n1` [Compound 957, 3-(6,8-dimethylimidazo[1,2-a]pyrazin-2-yl)-7-[2-(4-hydroxypiperidin-1-yl)ethoxy]-2H-chromen-2-one], the melting point (as a rule, the temperature of the solid-liquid transition) was in the range of 187 to 190 °C. Also, the EC (1.5-fold) in data set [1] (setting [2]) was less than 0.1 µM. Besides, the EC1.5x (concentration giving 1.5-fold Smn protein increase) in the data set on Smn protein (setting [3]) is 300 to 1000 nM. The “maximum fold (Fold) increase of Smn protein” value (from here on “maximum fold (Fold) increase”) in the data set on Smn protein (setting [4]) was “**** (fold increase between >1.5 and ≤1.65)”.
`CC1(C)CN(c2ccc3cc(-c4cn5ccc(C(F)(F)F)cc5n4)c(=O)oc3c2)CCN1` [Compound 269, 7-(3,3-dimethylpiperazin-1-yl)-3-[7-(trifluoromethyl)imidazo[1,2-a]pyridin-2-yl]-2H-chromen-2-one] yielded a melting point of 221 to 227 °C. The EC (1.5-fold) in data set [1] (setting [2]) was in the range of 1 to 3 µM. Also, the “maximum fold (Fold) increase” value in the data set with Smn protein (setting [4]) was “* (maximum fold increase of ≤1.2)”.
In the case of `O=c1oc2cc(N3CCNCC3)cc(F)c2cc1-c1ccccn1` [Compound 161, 5-fluoro-7-(piperazin-1-yl)-3-(pyridin-2-yl)-2H-chromen-2-one], the melting point is 221 to 225 °C. The EC (1.5-fold) in data set [1] (24 h) was 1 to 3 µM. For the same compound, in the data set with Smn protein, the “maximum fold (Fold) increase” value was “*** (key: *: maximum fold increase of ≤1.2; **: fold increase between >1.2 and ≤1.35; ***: fold increase between >1.35 and ≤1.5; ****: fold increase between >1.5 and ≤1.65; *****: fold increase >1.65)”; the EC1.5x (concentration giving 1.5-fold Smn protein increase) lay in the range of 3000 to 10000 nM.
The compound `Cc1cn2cc(-c3cc4ccc(N5C[C@H]6CN(C)C[C@H]6C5)cc4oc3=O)nc2c(C)n1` [Compound 688, 3-(6,8-dimethylimidazo[1,2-a]pyrazin-2-yl)-7-[(3aR,6aS)-5-methylhexahydropyrrolo[3,4-c]pyrrol-2(1H)-yl]-2H-chromen-2-one] displayed a melting point of 256 to 264 °C. In data set [1] (setting [2]), the EC (1.5-fold) is less than 0.1 µM. Further, the EC1.5x (concentration giving 1.5-fold Smn protein increase) in the data set with Smn protein (setting [3]) was less than 300 nM. Besides, in the data set with Smn protein (setting [4]), the “maximum fold (Fold) increase” value is listed as “***** (fold increase >1.65)”.
As for `Cc1nc2ccc(-c3cc4ccc(N5CCN(C)CC5)cc4oc3=O)cc2s1` [Cpd 769, 3-(2-methyl-1,3-benzothiazol-6-yl)-7-(4-methylpiperazin-1-yl)-2H-chromen-2-one], the melting point lay in the range of 215 to 217 °C. In addition, in data set [1] (setting [2]), the EC (1.5-fold) lay within 0.3 to 1 µM. For the same compound, the “maximum fold (Fold) increase” value with Smn protein (setting [4]) was “** (fold increase between >1.2 and ≤1.35)”.
As for `Cc1ccc2nc(-c3cc4ccc(N5CCN[C@@H](C)C5)cc4oc3=O)cn2n1` [Compound 624, 3-(6-methylimidazo[1,2-b]pyridazin-2-yl)-7-[(3S)-3-methylpiperazin-1-yl]-2H-chromen-2-one], the melting point was 208 to 212 °C. Also, the EC (1.5-fold) in data set [1] (setting [2]) was less than 0.1 µM. For the same compound, the “maximum fold (Fold) increase” value in the data set on Smn protein (setting [4]) was “*** (fold increase between >1.35 and ≤1.5)”.
`C[C@H]1CN(c2ccc3cc(-c4cccc(Cl)c4)c(=O)oc3c2)CCN1` [Compound 509, 3-(3-chlorophenyl)-7-[(3S)-3-methylpiperazin-1-yl]-2H-chromen-2-one]: the melting point was in the range of 149 to 151 °C. Further, the EC (1.5-fold) in data set [1] (setting [2]) was 1 to 3 µM. For the same compound, the “maximum fold (Fold) increase” value with Smn protein (setting [4]) is recorded as “* (maximum fold increase of ≤1.2)”.
On to `CCCN1CCN(c2ccc3cc(-c4cn5cccc(Cl)c5n4)c(=O)oc3c2)CC1` [Compound 119, 3-(8-chloroimidazo[1,2-a]pyridin-2-yl)-7-(4-propylpiperazin-1-yl)-2H-chromen-2-one], for which the melting point lay in the range of 245 to 247 °C. For the same compound, in data set [1] (setting [2]), the EC (1.5-fold) lay in the range of 0.3 to 1 µM. The “maximum fold (Fold) increase” value in the data set on Smn protein (setting [4]) is “** (fold increase between >1.2 and ≤1.35)”.
Compound `Cc1cn2cc(-c3cc4ccc(N5C[C@H]6CNC[C@H]6C5)cc4oc3=O)nc2c(C)n1` [Compound 686, 3-(6,8-dimethylimidazo[1,2-a]pyrazin-2-yl)-7-[(3aR,6aS)-hexahydropyrrolo[3,4-c]pyrrol-2(1H)-yl]-2H-chromen-2-one] had a melting point of 250 to 260 °C. Moreover, the EC (1.5-fold) in data set [1] (setting [2]) is less than 0.1 µM. Besides, in the data set with Smn protein (setting [3]), the EC1.5x (concentration giving 1.5-fold Smn protein increase) was less than 300 nM. Moreover, the “maximum fold (Fold) increase” value with Smn protein (setting [4]) was “***** (fold increase >1.65)”.
`CN(C)Cc1ccc2cc(-c3cn4ccsc4n3)c(=O)oc2c1` [Compound 198, 7-[(dimethylamino)methyl]-3-(imidazo[2,1-b][1,3]thiazol-6-yl)-2H-chromen-2-one] registered a melting point of 135 to 140 °C. In data set [1] (setting [2]), the EC (1.5-fold) fell in the range of 0.3 to 1 µM. The EC1.5x (concentration giving 1.5-fold Smn protein increase) in the data set on Smn protein (setting [3]) was 3000 to 10000 nM. Moreover, in the data set with Smn protein (setting [4]), the “maximum fold (Fold) increase” value was “**** (fold increase between >1.5 and ≤1.65)”.
Turning to `CSc1cccc(-c2cc3ccc(N4CCNCC4)cc3oc2=O)n1` [Cpd 445, 3-[6-(methylsulfanyl)pyridin-2-yl]-7-(piperazin-1-yl)-2H-chromen-2-one], the melting point was 180 to 183 °C. Besides, the EC (1.5-fold) in data set [1] (setting [2]) fell in the range of 3 to 30 µM. For the same compound, the “maximum fold (Fold) increase” value with Smn protein (setting [4]) is listed as “* (maximum fold increase of ≤1.2)”.
As to `COc1cccc(-c2cc3c(F)cc(N4CCN[C@@H](C)C4)cc3oc2=O)n1` [Compound 469, 5-fluoro-3-(6-methoxypyridin-2-yl)-7-[(3S)-3-methylpiperazin-1-yl]-2H-chromen-2-one], the melting point was in the range of 199 to 201 °C. In addition, the EC (1.5-fold) in data set [1] (setting [2]) was in the range of 0.1 to 0.3 µM. Moreover, the “maximum fold (Fold) increase” value with Smn protein (setting [4]) was “** (fold increase between >1.2 and ≤1.35)”.
In the case of `C[C@@H]1CN(c2ccc3cc(-c4ccc5c(c4)OCO5)c(=O)oc3c2)CCN1` [Compound 488, 3-(1,3-benzodioxol-5-yl)-7-[(3R)-3-methylpiperazin-1-yl]-2H-chromen-2-one], the melting point fell in the range of 135 to 137 °C. For the same compound, the EC (1.5-fold) in data set [1] (setting [2]) is 3 to 30 µM. Further, the “maximum fold (Fold) increase” value in the data set with Smn protein (setting [4]) was “* (maximum fold increase of ≤1.2)”.
`C[C@H]1CN(c2ccc3cc(-c4cn5cccc(Cl)c5n4)c(=O)oc3c2)CCN1` [Compound 184, 3-(8-chloroimidazo[1,2-a]pyridin-2-yl)-7-[(3S)-3-methylpiperazin-1-yl]-2H-chromen-2-one]: the melting point lay within 215 to 217 °C. Also, the EC (1.5-fold) in data set [1] (setting [2]) was in the range of 0.3 to 1 µM. The “maximum fold (Fold) increase” value in the data set with Smn protein (setting [4]) was “*** (fold increase between >1.35 and ≤1.5)”.
`Cc1ccc2nc(-c3cc4ccc(N5CCN[C@H](C)C5)cc4oc3=O)cn2c1` [Compound 220, 3-(6-methylimidazo[1,2-a]pyridin-2-yl)-7-[(3R)-3-methylpiperazin-1-yl]-2H-chromen-2-one] returned a melting point of 185 to 188 °C. Moreover, the EC (1.5-fold) in data set [1] (setting [2]) lay in the range of 0.1 to 0.3 µM. In addition, the “maximum fold (Fold) increase” value in the data set with Smn protein (setting [4]) was “** (fold increase between >1.2 and ≤1.35)”.
Compound `Cc1ccn2nc(-c3cc4ccc(N5CCN(C)CC5)cc4oc3=O)cc2c1` [Compound 303, 7-(4-methylpiperazin-1-yl)-3-(5-methylpyrazolo[1,5-a]pyridin-2-yl)-2H-chromen-2-one] displayed a melting point of 279 to 281 °C. The EC (1.5-fold) in data set [1] (setting [2]) is 0.3 to 1 µM. The EC1.5x (concentration giving 1.5-fold Smn protein increase) with Smn protein (setting [3]) fell in the range of 3000 to 10000 nM. Besides, the “maximum fold (Fold) increase” value in the data set with Smn protein (setting [4]) was “*** (fold increase between >1.35 and ≤1.5)”.
